Measured values: patent US20240285634A1, “COMPOUND AND METHOD FOR TREATING CHEMOTHERAPY-ASSOCIATED GASTROINTESTINAL SIDE EFFECTS” (ONQUALITY PHARMACEUTICALS CHINA LTD., priority 2021, published 2024)
Structures can show the parent of a compound that is named as a salt.

How the values were obtained:
[1] = system: Chemotherapeutic agent-caused diarrhea models of Balb/c mice; assay: Relieving effect on diarrhea caused by a chemotherapeutic agent (Examples 1-201); assay type: in vivo
Source text: Construction of mouse animal models: Chemotherapeutic agent-caused diarrhea models of Balb/c mice were constructed according to the administration mode and frequency of the chemotherapeutic agent as shown in Table 3. After administration for several days, mice developed different extents of diarrhea symptoms (as shown in FIG. 1), which were similar to the conditions in human. Thus, chemotherapeutic agent-caused diarrhea models of mice are very good models to mimic diarrhea in human caused by the chemotherapeutic agent.
Balb/c mice were fed for 1 week, and then divided into groups. The experiment was divided into a control group, a chemotherapeutic agent group, and a group of the compound as shown in Formula I, each of which comprised 10 mice, to perform the administration experiment, for which the administration dosage, mode, time and frequency were shown in Table 3. The control group: being injected or intragastrically administered with the same solvent as that used in the group of the compound as shown in Formula I (the injection mode and time were shown in Table 3), and then being injected or intragastrically administered with the same solvent as that used in the chemotherapeutic agent group (the administration mode was shown in Table 3); the chemotherapeutic agent group: being injected or intragastrically administered with the same solvent as that used in the group of the compound as shown in Formula I (the administration mode and time were shown in Table 3), and then being injected or intragastrically administered with the chemotherapeutic agent (the type, administration mode and dosage were shown in Table 3); the group of the compound as shown in Formula I: being injected or intragastrically administered with the compound as shown in Formula I (the administration mode and time were shown in Table 3), and then being administered with the chemotherapeutic agent (the administration mode and dosage were shown in Table 3).
The scoring of diarrhea can refer to the method of Akinobu Kurita (Cancer Chemother Pharmacol 2000; 46:211-20.), Grade 0: normal feces; Grade 1: mild diarrhea, the stools is slightly wet and soft; Grade 2: moderate diarrhea, loose stools and mild perianal contamination; Grade 3: severe diarrhea, watery stools and accompanied by severe perianal staining (see FIG. 1). It is regarded as effective remission when the diarrhea grading of mice in the group of the compound as shown in Formula I is reduced compared with the average diarrhea grading of mice in the chemotherapeutic agent group.
The diarrhea grading of mice was observed and recorded every day. At the end of the experiment, the number of mice in the group of the compound as shown in Formula I whose diarrhea grading was lower than that of mice in the chemotherapeutic agent group was recorded. Table 3 lists various animal experiment combinations of chemotherapeutic agents and the compound as shown in Formula I, as well as the corresponding experimental results. (Relative remission rate %=the number of mice in the group of the compound as shown in Formula I whose diarrhea has been effectively relieved/the total number of mice in the group of the compound as shown in Formula I*100%. The establishment rate of diarrhea model in the chemotherapeutic agent group was 50%-70%, that is, about 5-7 of 10 mice developed diarrhea during the experiment, and there were cases of individual mice death or not developing diarrhea.)

[2] = system: Balb/c mice, constipation caused by continuous administration of a chemotherapeutic agent; assay: Relieving effect on constipation caused by the continuous administration of a chemotherapeutic agent (Examples 385-405); assay type: in vivo; conditions: Fluorouracil (5-Fu) 100 mg/kg intraperitoneal injection once a day for 5 days, compound 150 mg/kg intraperitoneal injection once a day for 5 days, experimental cycle 9 days
Source text: Balb/c mice were fed for 1 week, and then divided into groups. The experiment was divided into a control group, a chemotherapeutic agent group, and a group of the compound as shown in Formula I, each of which comprised 10 mice, to perform the administration experiment, for which the administration dosage, mode, time and frequency were shown in Table 6. The control group: being injected or intragastrically administered with the same solvent as that used in the group of the compound as shown in Formula I (the administration mode and time were shown in Table 6), and then being injected or intragastrically administered with the same solvent as that used in the group of the compound as shown in Formula I (the administration mode was shown in Table 6); the chemotherapeutic agent group: being injected or intragastrically administered with the same solvent as that used in the group of the compound as shown in Formula I (the administration mode and time were shown in Table 6), and then being injected or intragastrically administered with the chemotherapeutic agent (the type, administration mode, time and dosage were shown in Table 6); the group of the compound as shown in Formula I: being injected or intragastrically administered with the compound as shown in Formula I (the administration mode and time were shown in Table 6), and then being administered with the chemotherapeutic agent (the type, administration mode, time and dosage were shown in Table 6).
The feces reduction rate was calculated with reference to the method of Ji Eun Kim (Lab Anim Res. 2016 December; 32(4): 231-240.). Feces reduction rate (%)=(the control group−the chemotherapeutic agent group or the group of the compound as shown in Formula I)/the control group*100%
It is regarded as effective remission when the feces reduction rate of mice in the group of the compound as shown in Formula I is reduced compared with that in the chemotherapeutic agent group.
The feces amount of mice within 3 hours was observed and recorded every day. At the end of the experiment, the number of mice in the group of the compound as shown in Formula I whose feces reduction rate was lower than that of mice in the chemotherapeutic agent group was recorded. Table 6 lists various animal experiment combinations of chemotherapeutic agents and the compound as shown in Formula I, as well as the corresponding experimental results.

Compound CN1CCN(c2ccc(Nc3ncc4cc5n(c4n3)C3(CCCCC3)CNC5=O)nc2)CC1 [Compound I hydrochloride, Trilaciclib dihydrochloride] has a Relative remission rate ([1]; Ex 132, Fluorouracil 100 + irinotecan 200 mg/kg intraperitoneal single, compound 150 mg/kg intraperitoneal single 0.5 h before, cycle 8 days) of 30%, a Relative remission rate ([1]; Ex 133, Fluorouracil 100 + irinotecan 200 mg/kg intraperitoneal single, compound 150 mg/kg intraperitoneal single 6 h before, cycle 8 days) of 60% and a Relative remission rate ([1]; Ex 134, Fluorouracil 100 + irinotecan 200 mg/kg intraperitoneal single, compound 150 mg/kg intraperitoneal single 12 h before, cycle 8 days) of 50%. For the same compound, the Relative remission rate ([1]; Ex 161, Fluorouracil 50 + oxaliplatin 5 + irinotecan 50 + tetrahydrofolic acid 90 mg/kg intraperitoneal single, compound 150 mg/kg intraperitoneal single 0.5 h before, cycle 7 days) was 70%, the Relative remission rate ([1]; Ex 162, Fluorouracil 50 + oxaliplatin 5 + irinotecan 50 + tetrahydrofolic acid 90 mg/kg intraperitoneal single, compound 150 mg/kg intraperitoneal single 12 h before, cycle 7 days) was 40% and the Relative remission rate ([1]; Ex 194, Topotecan 10 mg/kg intraperitoneal single, compound 100 mg/kg oral single 4 h before, cycle 14 days) was 50%. For the same compound, the Relative remission rate ([1]; Ex 200, Gemcitabine and carboplatin 120 mg/kg intraperitoneal single, compound 100 mg/kg oral single 4 h before, cycle 8 days) was 70%, the “Relative remission rate (%)” value ([2]; Example 393, 0.5 h before the chemotherapeutic agent) was 70% and the “Relative remission rate (%)” value ([2]; Example 394, 4 h before the chemotherapeutic agent) was 50%. For the same compound, the “Relative remission rate (%)” value ([2]; Example 395, 12 h before the chemotherapeutic agent) was 30%.
